{
  "source": "patent US20060165654A1",
  "about": "“Peptides and recombinant proteins mimicking interferons” (priority 2002, published 2006)",
  "key": {"[1]": {"test_system": "virus of mouse encephalomiocarditis", "test": "antiviral activity: suppression of cytopathic action of test-virus in L-41 and VERO cell cultures", "format": "cell-based", "conditions": "L-41 and VERO cells", "procedure": "FIG. 7 Antiviral properties of de novo proteins and interferons in cell cultures L41 (human mononuclear leucosis) and VERO (kidney of green simian). The activity of preparations was determined as a minimal concentration leading to a 50% delay of the virus of mouse encephalomiocarditis cytopathic action. The average values of three independent experiments are shown ± the standard deviations.\nFIG. 8 Antiviral properties of de novo proteins in the cell cultures L-41 (human mononuclear leucosis) and VERO (kidney of green simian). […] The average values of three independent experiments are shown ± standard deviations.\nThe average values of three independent experiments are shown ± standard deviations.\n(§1) Antiviral and cytotoxity properties of obtained proteins. Testing of antiviral activity of the proteins was carried out in vitro monitoring the ability of the preparation to suppress cytopathic action of the test-virus (Ershov F., 1996, Interferon system: norm and pathology, Moscow, Medicine). Two cell lines were used in experiments: cells of human mononuclear leucosis L41 and green simian kidney VERO.\nas §1, with “Antiviral” for “Antiviral and cytotoxity”, “synthetic linear peptides.” for “obtained proteins.”, “synthetic linear peptides” for “proteins”, “L-41” for “L41”"}, "[2]": {"test_system": "human T-lymphoblastoid cell line MT4", "conditions": "cited from earlier work"}},
  "note": "“Also recorded” adds a separate entry of the source.",
  "data": [
    {"substance": "LKDRHDF (human interferon alfa2)", "values": [
      {"measurement": "antiviral activity (in words)", "setting": "[1]", "value": "demonstration of antiviral activity"}
    ]},
    {"substance": "LKEKKYSP (human interferon alfa2) [reference compound]", "values": [
      {"measurement": "concentrations suppressing proliferation of MT4", "setting": "[2]", "value": "10^−9-10^−8 M"},
      {"measurement": "antiviral activity (in words)", "setting": "[1]", "value": "demonstration of antiviral activity"}
    ]},
    {"substance": "LKEKKYSP-Ser-Ser-LKDRHDF (LKEKKYSPSSLKDRHDF; human interferon alfa2)", "values": [
      {"measurement": "antiviral activity (in words)", "setting": "[1]", "value": "demonstration of antiviral activity"},
      {"measurement": "antiviral activity compared with human interferon-α2", "setting": "[1]; minimal concentration giving 50% delay of cytopathic action", "value": "only one order of magnitude less; also recorded: practically completely reproduces antiviral properties of human interferon-α2"}
    ]}
  ]
}
